Laboratory results: PMC7395176, “Retromer stabilization results in neuroprotection in a model of Amyotrophic Lateral Sclerosis” (Nature Communications, 2020)

What was measured:
VPS26b = assay: Western blot for VPS26b in treated Neuro2a cells; format: cell-based; conditions: 10 µM, 48 h, WB
Procedure: Compound 2a increases VPS26b and VPS29 in Neuro2a […]
a,WBs forVPS26b, VPS29 and β-Tubulin in vehicle- and compound 2a-treated Neuro2a cells(10 μM, 48h, 3x10^5 cells/well).Quantitative analyses of blots (means ± SD) are shown inhistograms (control:n=4 independent wells, 2a: n=5 independent wells examined in one experiment, p<0.0001 for all the comparisons. Two-tailed Student’s test was used to determine the statisticalsignificanceof data, ***p<0.0001
(1 picture or pasted object on this page, not shown here)

[1] = Brain uptake of compound 2a by LC-MS/MS in C57BL/6J mice; format: in vivo; conditions: C57BL6J mice, daily intraperitoneal injections 10 mg/kg; 1, 7, 15, 30 days
Procedure: Compounds 2a, 4a, and standard R55/1 (10 mg/Kg) were intraperitoneally injected in C57BL6J mice daily. After 1 week, mice were sacrificed, saline perfused to avoid CNS contamination by compounds in blood circulation, and SC protein extracts were assayed by WB. […] Therefore, phenyl-1,3-bis-guanylhydrazone 2a was selected as an early lead.
Quantification of compound 2a in CNS extracts of C57BL/6J mice was performed at ProMeFa facility (Proteomics and Metabolomics Facility) of San Raffaele Scientific Institute. Wild-type C57BL/6J males mice (P60) were intraperitoneally injected with compound 2a (10 mg/kg) or vehicle, daily. We sacrificed mice at the following time points: 1, 7, 15, and 30 days. Before brains collection, mice received saline perfusion. Brains were weighted (~350 mg each) and rapidly frozen at −80 °C. The extraction was performed with methanol and each biological sample was resuspended in 60 µl of LC/MS grade water and 5 µL were analyzed by LC-MS/MS using the UPLC 1290 (Agilent Technologies) coupled to the TripleTOF 5600+ mass spectrometer (SCIEX). […] Calibration curve in brain was constructed by plotting the peak area versus corresponding quantities of compound 2a (0; 0.1; 0.26; 1 nmol, run in quadruplicates, R2 = 0.9443), using MultiQuant 2.1 software (SCIEX).

[2] = tested on: SOD1^G93A-transfected Neuro2a cells; assay: Cell viability of SOD1G93A-transfected Neuro2a cells (colorimetric assay); format: cell-based; conditions: 10 µM
From the text: The Golgi apparatus is affected in MNs from ALS patients and in cells overexpressing mutant SOD1 forms[35]–[37]. We transiently transfected Neuro2a cells with plasmids encoding SOD1^G93A before treatment with compound 2a. […] We next determined the viability of Neuro2a cells transfected with SOD1^G93A and exposed to compound 2a using a colorimetric assay. Controls cells received LacZ plasmids. […] We observed a slight, but not significant, reduction of cell viability in […] Neuro2a cells (Fig. 3b). […] The increased cell viability provided by compound 2a could result from unknown, nonspecific off-target effects. Therefore, we used plasmids encoding VPS35 to increase/stabilize the retromer complex. […] However, this phenotype was reverted co-transfecting VPS35 and SOD1^G93A plasmids (Fig. 3c).
Having observed a marked improvement of viability in SOD1^G93A-transfected Neuro2a cells with VPS35 gain of function, we investigated the effect of VPS35 loss of function. We transfected Neuro2a cells with RNAi plasmids encoding a siRNA duplex for VPS35, to knockdown VPS35 and disrupt the retromer assembly. […] By including Sh56 plasmids in the transfection mix, we worsened this phenotype (Fig. 3d). […] We next assayed cytotoxicity by measuring lactate dehydrogenase (LDH) release with a LDH-Glo™ cytotoxicity assay. […]

**Q.** With `NC(N)=N/N=C/c1cccc(/C=N/N=C(N)N)c1` [compound 2a, phenyl-1,3-bis-guanylhydrazone] as the compound, how does the VPS26b protein levels (VPS26b) read?
**A.** significantly increased

**Q.** What about the “access to the CNS (brain uptake)” value [1] of the same compound?
**A.** confirmed its access to the CNS

**Q.** And the cell viability [2]?
**A.** cell viability was restored
